Measured values as given in patent US20100105688A1, “PHARMACEUTICAL COMPOSITIONS COMPRISING 3,5-DIAMINO-6-(2,3-DICHLOPHENYL)-1,2,4-TRIAZINE OR R(-)-2,4-DIAMINO-5-(2,3-DICHLOROPHENYL)-6-FLUOROMETHYL PYRIMIDINE AND AN NK1” (GLAXO GROUP LIMITED, priority 2007, published 2010).
Read-outs that look alike come from different tables or passages of the source.

Assays:
[1] = system: rats; test: FCA (Freunds Complete Adjuvant) model of inflammatory hypersensitivity to pain (weight bearing); type: in vivo, rat
Protocol: • Naïve weight bearing readings were taken. The hypersensitivity to pain was measured using the Rat incapacitance tester (Linton instruments). This instrument is serviced once a year and should be regularly calibrated • All rats then received an intraplantar injection of 100 ul of FCA (Freund's complete adjuvant) into the left hind paw. The FCA was sonicated for 15 minutes prior to use. • Approximately 23 hrs after administration of the FCA, pre-dose weight bearing readings were taken. All animals were then ranked and randomised for dosing according to their FCA window (predose difference in grams−naïve difference in grams). […] Celebrex 10 mg/kg p.o. (positive control) as appropriate according to ranking and randomisation. • Animals were assessed in the weight bearing apparatus 1 hour post dose. • The study was blind and randomised by FCA window using the Latin square method. • % reversals were calculated by using the naïve, pre-dose and post dose values as follows: % Reversal=[(Pre-dose−Post-dose)/(Pre-dose−Naïve)]×100 • Graphs and ED50 were calculated where appropriate using Prism4. • Statistical analysis was carried out using ANOVA followed by calculating the least square means using the statistical package Statistica 6.1 • From the dose response curves the ED20 was determined for the combination study • Naïve weight bearing readings were taken. The hypersensitivity to pain was measured using the Rat incapacitance tester (Linton instruments). This instrument is serviced once a year and should be regularly calibrated • All rats then received an intraplantar injection of 100 ul of FCA (Freund's complete adjuvant) into the left hind paw. The FCA was sonicated for 15 minutes prior to use. • Approximately 23 hrs after administration of the FCA, pre-dose weight bearing readings were taken. All animals were then ranked and randomised for dosing according to their FCA window (predose difference in grams−naïve difference in grams). […] See table 5 for details of the groups • Animals were assessed in the weight bearing apparatus 1 hour post dose. • The study was blind and randomised by FCA window using the Latin square method. • % reversals were calculated by using the naïve, pre-dose and post dose values as follows: % Reversal=[(Pre-dose−Post-dose)/(Pre-dose−Naïve)]×100 • Statistical analysis was carried out using ANOVA followed by calculating the least square means using the statistical package Statistica 6.1 • ED50 and ED20 values and graphs were calculated using prism5 • Naïve weight bearing readings were taken. The hypersensitivity to pain was measured using the Rat incapacitance tester (Linton instruments). This instrument is serviced once a year and should be regularly calibrated • All rats then received an intraplantar injection of 100 ul of FCA (Freund's complete adjuvant) into the left hind paw. The FCA was sonicated for 15 minutes prior to use. • Approximately 23 hrs after administration of the FCA, pre-dose weight bearing readings were taken. All animals were then ranked and randomised for dosing according to their FCA window (predose difference in grams—naïve difference in grams). Rats with FCA window less than 30 g were excluded from the study. • Animals were then dosed with the following in a fixed dose ratio of 1.25:1 according to ranking and randomisation. (Table 6) […] Graphs and ED50 were calculated where appropriate using Prism5 • Statistical analysis was carried out using ANOVA followed by calculating the least square means using the statistical package Statistica 6.1

[2] = Blood and brain concentrations in satellite animals of the MEST study; type: in vivo, rat; details: satellite rats; for concentration at 15 min / concentration at 30 min: rat, sc; for change of blood or brain concentration of the sodium channel blocker in the presence of ENK6: ENK6 30 mg/kg i.p.
Protocol: Satellite animals (n=3/group) received the same drugs or combinations of drugs as the test groups, and were culled at the appropriate time after dosing. Blood and brain samples were taken for analysis of the drug concentrations in these compartments.
(§1) All doses were calculated as base. ENa9 and ENa13 were dosed via the subcutaneous (s.c.) route at 1 ml/kg in a 2% v/v DMSO/saline vehicle 30 minutes prior to test. ENa7 and ENa14 were dosed orally (p.o.) in a 1% w/v methylcellulose/water vehicle at 2 ml/kg, 60 minutes before test. Compound ENK6 was dosed with via the intraperitoneal (i.p.) route 60 minutes before the test or via the s.c. route 15 minutes before test. In both cases ENK6 was dissolved in saline.

[3] = system: Male CD rats; test: Rat MEST model (seizure threshold, CC50); type: in vivo
Protocol: This work was conducted in compliance with the Home Office Guidance on the operation of the Animals (Scientific Procedures) Act 1986 and GlaxoSmithKline ethical standards. Male CD rats (100-145 g) were supplied by Charles River, UK. Animals were group housed (6 animal per cage) with free access to food (Standard rodent chow; Harlan, UK) and water under a 12 h light/dark cycle (lights on at 0700 h). A period of at least one week between arrival at GSK and the study was allowed in all cases.
Animals were administered a test compound at the appropriate dose, route and pre-treatment time and returned to their home cage. Testing occurred in a separate room from that used for housing. Testing involved determining the threshold for tonic hindlimb extensor seizures using a Hugo Sachs Electronik stimulator which delivers a constant current of 0.3 second duration, 50 Hz, sinewave form, fully adjustable between 1 and 300 mA. Stimuli were delivered via corneal electrodes (Stean T O, Atkins A R, Heidbreder C A, Quinn L P, Trail B K, Upton N. (2005) Br J. Pharmacol. 144(5):628-35). Seizure threshold was determined using the ‘up and down’ method of Kimball et al. (1957)(Kimball A W, Burnett W T Jr, Doherty D G. (1957) Radiat Res. 7(1):1-12). The first animal tested in each group was stimulated with a current that might be expected to be close to the threshold for induction of a seizure. If a tonic seizure was not induced, then next animal in the group received a stimulus 5 mA higher. If a tonic seizure was induced, then the next animal received a stimulus 5 mA lower. This is repeated for all animals within the control (vehicle) group. In the case of groups treated with a sodium channel blocker steps of 10 to 30 mA were used.
as §1
Induction of seizure is measured as an all-or-nothing effect scored as either present (+) or absent (0) for each animal. The data for each treatment group were recorded as the number of +'s and 0's at each current level employed and this information was then used to calculate the CC50 value (current required for 50% of animals to show seizure behaviour)+standard error of the mean according to the method of Kimball et al. (1957). Drug effects were calculated as the % change in CC50. Significant differences between drug-treated animals and appropriate vehicle treated groups were assessed according to the methods of Litchfield and Wilcoxon (1949). The statistical significance of differences between sodium channel blocker alone or in combination with ENK6 was assessed using a Student's t test.

[4] = ENK6 10 mg/kg s.c. + ENa7 1 mg/kg p.o., n = 2-3
[5] = ENK6 10 mg/kg s.c. + ENa7 3 mg/kg p.o., n = 2-3
[6] = ENK6 30 mg/kg s.c. + ENa7 1 mg/kg p.o., n = 2
[7] = ENK6 30 mg/kg s.c. + ENa7 3 mg/kg p.o., n = 2
[8] = sodium channel blocker 1 mg/kg s.c. in the presence of ENK6 (30 mg/kg i.p.)
[9] = sodium channel blocker 3 mg/kg s.c. in the presence of ENK6 (30 mg/kg i.p.)
[10] = sodium channel blocker alone, 1 mg/kg s.c., 30 minutes prior to test
[11] = sodium channel blocker alone, 3 mg/kg s.c., 30 minutes prior to test
[12] = ENK6 30 mg/kg i.p. + ENa13 1 mg/kg s.c., n = 2
[13] = ENK6 30 mg/kg i.p. + ENa13 3 mg/kg s.c., n = 2

With COc1ccc(-n2nnnc2C(F)(F)F)cc1CN[C@H]1CCCN[C@H]1c1ccccc1.Cl.Cl [ENK6, [2-Methoxy-5-(5-trifluoromethyl-tetrazol-1-yl)-benzyl]-([2S,3S]-2-phenyl-piperidin-3-yl)-amine dihydrochloride] the ED50 ([1]; Rattus norvegicus, po, compound alone, 0.1-3.0 mg/kg p.o. as printed, 1 hour post dose, range in brackets as printed, read-out: ED50, reversal of the FCA induced hypersensitivity) was 0.4 mg/kg, the “reversal of the FCA induced hypersensitivity” value ([1]; compound alone, 0.1-3.0 mg/kg, 1 hour post dose) was “dose related reversal” and the “ED20, reversal of the FCA induced hypersensitivity” value ([1]; compound alone, p.o. as printed, from the dose response curve) was 0.08 mg/kg. For the same compound, the “ED20, reversal of the FCA induced hypersensitivity” value ([1]; compound alone, s.c. (summary of results)) was “approx 0.08 mg/kg”, the “effect on the FCA induced hypersensitivity” value ([1]; each compound alone at its ED20 dose (ENa7 0.1 mg/kg p.o.; ENK6 0.08 mg/kg s.c.)) was “no significant effect” and the concentration at 15 min ([2]; blood, 10 mg/kg, ENK6 10 mg/kg s.c. + ENa7 veh, n = 2-3, read-out: Blood concentration) was 839 ng/mL. The concentration at 15 min ([2]; blood, 30 mg/kg, ENK6 30 mg/kg s.c. + ENa7 veh, n = 2, read-out: Blood concentration) was 1890 ng/mL, the concentration at 15 min ([2]; brain, 10 mg/kg, ENK6 10 mg/kg s.c. + ENa7 veh, n = 2-3, read-out: Brain concentration) was 1420 ng/g and the concentration at 15 min ([2]; brain, 30 mg/kg, ENK6 30 mg/kg s.c. + ENa7 veh, n = 2, read-out: Brain concentration) was 4500 ng/g. It also gave a Blood concentration [2, 4] of 635 ng/mL, a Brain concentration [2, 4] of 1254 ng/g and a Blood concentration [2, 5] of 732 ng/mL. The Brain concentration [2, 5] was 1504 ng/g, the Blood concentration [2, 6] was 1542 ng/mL and the Brain concentration [2, 6] was 3343 ng/g. The Blood concentration [2, 7] was 1481 ng/mL, the Brain concentration [2, 7] was 2484 ng/g and the “effect on seizure threshold” value ([3]; ENK6 alone, 10 mg/kg s.c., 15 minutes before testing (first experiment)) was “no effect on seizure threshold”. The “effect on seizure threshold” value ([3]; ENK6 alone, 30 mg/kg i.p., 60 minutes before the test) was “no effect on seizure threshold” and the “effect on seizure threshold” value ([3]; ENK6 alone, 30 mg/kg s.c., 15 minutes before testing) was “no effect on seizure threshold”.

For Cl.NC(=O)[C@@H]1CC[C@H](c2ccc(OCc3ccccc3F)cc2)N1 [ENa9, (5R)-5-(4-{[(2-fluorophenyl)methyl]oxy}phenyl)-L-prolinamide hydrochloride], the “change of blood or brain concentration of the sodium channel blocker in the presence of ENK6” value [2] was “No increase”, the “increase in CC50 (mA)” value [3, 8] was 133% and the “increase in CC50 (mA)” value [3, 9] was 323%. For the same compound, the “effect on seizure threshold” value [3, 10] was “inactive” and the “effect on seizure threshold” value [3, 11] was “small, but significant increase in seizure threshold”.

CN1CC[C@]2(CC[C@H](c3ccc(OCc4ccccc4F)cc3)N2)C1=O.Cl [ENa13, (2R,5R)-2-(4-{[(2-Fluorophenyl)methyl]oxy}phenyl)-7-methyl-1,7-diazaspiro[4.4]nonan-6-one hydrochloride] gave a concentration at 30 min ([2]; blood, 1 mg/kg, ENK6 veh + ENa13 1 mg/kg s.c., n = 2, read-out: Blood concentration) of 499 ng/mL, a concentration at 30 min ([2]; blood, 3 mg/kg, ENK6 veh + ENa13 3 mg/kg s.c., n = 2, read-out: Blood concentration) of 1820 ng/mL and a concentration at 30 min ([2]; brain, 1 mg/kg, ENK6 veh + ENa13 1 mg/kg s.c., n = 2, read-out: Brain concentration) of 478 ng/g. The concentration at 30 min ([2]; brain, 3 mg/kg, ENK6 veh + ENa13 3 mg/kg s.c., n = 2, read-out: Brain concentration) was 1820 ng/g, the “change of blood or brain concentration of the sodium channel blocker in the presence of ENK6” value [2] was “No increase” and the Blood concentration [2, 12] was 416 ng/mL. The Brain concentration [2, 12] was 508 ng/g, the Blood concentration [2, 13] was 1160 ng/mL and the Brain concentration [2, 13] was 1235 ng/g. The “increase in CC50 (mA)” value [3, 8] was 118%, the “increase in CC50 (mA)” value [3, 9] was 129% and the “effect on seizure threshold” value [3, 10] was “inactive”. The “effect on seizure threshold” value [3, 11] was “robust and significant increase in seizure threshold”.

In the case of Nc1nc(N)c(-c2cccc(Cl)c2Cl)c(CF)n1 [ENa15, R(−)-2,4-diamino-5-(2,3-dichlorophenyl)-6-fluoromethyl pyrimidine methanesulphonate], the “increase in CC50 (mA)” value ([3]; sodium channel blocker 0.3 mg/kg p.o. in the presence of ENK6 30 mg/kg s.c.) is reported as 176%, the “increase in CC50 (mA)” value ([3]; sodium channel blocker 1 mg/kg p.o. in the presence of ENK6 30 mg/kg s.c.) is reported as 51% and the “effect on seizure threshold” value ([3]; sodium channel blocker alone, 0.3 mg/kg p.o., 60 minutes before the test) is reported as “no increase in seizure threshold”. For the same compound, the “increase in seizure threshold” value ([3]; sodium channel blocker alone, 1 mg/kg p.o., 60 minutes before the test) was 292%.
